Source: PubChem BioAssay (NCI)
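96-well plates; 48 h exposure; 5 concentrations. Endpoints by linear interpolation between flanking doses. Not reached: highest tested concentration assigned. Here, GI50 denotes the concentration required for 50% inhibition of growth. TGI is the concentration that stops growth completely.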

Legend:
Experiment in all cases: NCI tumour cell line growth inhibition, 48 h
OVCAR-3 ovarian = test system: OVCAR-3 ovarian
SNB-75 CNS = test system: SNB-75 CNS
KM12 colon = test system: KM12 colon
NCI-H23 lung = test system: NCI-H23 lung
UACC-62 melanoma = test system: UACC-62 melanoma
IGROV1 ovarian = test system: IGROV1 ovarian
U251 CNS = test system: U251 CNS
ACHN renal = test system: ACHN renal
HCT-15 colon = test system: HCT-15 colon

CO[C@H]1C=C[C@]23c4cc5c(cc4CN(CC2O)[C@@H]3C1)OCO5 (some centres not stated)
TGI (OVCAR-3 ovarian): 22.3 µM
TGI (SNB-75 CNS): 30.4 µM
TGI (KM12 colon): 28.3 µM
TGI (NCI-H23 lung): 33 µM
TGI (UACC-62 melanoma): 19.6 µM
TGI (IGROV1 ovarian): 26 µM
TGI (U251 CNS): 38.3 µM
TGI (ACHN renal): 6.73 µM
TGI (HCT-15 colon): 24.9 µM

CCC1OCCN1C(C)C (configuration not stated)
TGI (KM12 colon): > 100 µM
TGI (NCI-H23 lung): > 100 µM
TGI (UACC-62 melanoma): > 100 µM
TGI (IGROV1 ovarian): > 100 µM
TGI (U251 CNS): > 100 µM
TGI (ACHN renal): > 100 µM
TGI (HCT-15 colon): > 100 µM

N#Cc1c2c(c(N=[N+]=[N-])n3c1nc1ccccc13)CCCC2
TGI (OVCAR-3 ovarian): 10.3 µM
TGI (SNB-75 CNS): 4.04 µM
TGI (KM12 colon): 5.53 µM
TGI (NCI-H23 lung): 6.27 µM
TGI (IGROV1 ovarian): 6.56 µM
TGI (U251 CNS): 10.3 µM
TGI (ACHN renal): 5.46 µM
TGI (HCT-15 colon): 4.38 µM

COC(=O)c1cc(Nc2ccc(O)c3c2C(=O)c2c([N+](=O)[O-])ccc(O)c2C3=O)cc(C(=O)OC)c1
GI50 (OVCAR-3 ovarian): 3.42 µM
TGI (OVCAR-3 ovarian): 21.3 µM
GI50 (KM12 colon): 34.5 µM
TGI (KM12 colon): > 100 µM
GI50 (UACC-62 melanoma): 4.63 µM
TGI (UACC-62 melanoma): > 100 µM
GI50 (IGROV1 ovarian): 26.9 µM
TGI (IGROV1 ovarian): > 100 µM
GI50 (U251 CNS): 25.7 µM
TGI (U251 CNS): > 100 µM
GI50 (ACHN renal): 21.3 µM
TGI (ACHN renal): > 100 µM
GI50 (HCT-15 colon): 2.77 µM
TGI (HCT-15 colon): > 100 µM

COc1cc2ccn3c4cc(OC)c(OC)cc4cc3c2cc1OC
TGI (OVCAR-3 ovarian): > 100 µM
TGI (SNB-75 CNS): > 100 µM
TGI (KM12 colon): > 100 µM
TGI (NCI-H23 lung): > 100 µM
TGI (UACC-62 melanoma): > 100 µM
TGI (U251 CNS): > 100 µM
TGI (ACHN renal): > 100 µM

COc1ccc(C[C@H]2C[C@@H](O)[C@@H](C)C/C=C/Cc3cccc(O)c3C(=O)O2)cn1
GI50 (OVCAR-3 ovarian): 50.5 µM
TGI (OVCAR-3 ovarian): > 100 µM
GI50 (SNB-75 CNS): 17 µM
TGI (SNB-75 CNS): 73.4 µM
GI50 (KM12 colon): 23.5 µM
TGI (KM12 colon): 62.4 µM
GI50 (NCI-H23 lung): 24.2 µM
TGI (NCI-H23 lung): 56.8 µM
GI50 (UACC-62 melanoma): 22.1 µM
TGI (UACC-62 melanoma): 64.2 µM
GI50 (IGROV1 ovarian): 13 µM
TGI (IGROV1 ovarian): 34.4 µM
GI50 (U251 CNS): 17.9 µM
TGI (U251 CNS): 36.1 µM
GI50 (ACHN renal): 25.5 µM
TGI (ACHN renal): 65.9 µM
GI50 (HCT-15 colon): 28.9 µM
TGI (HCT-15 colon): 88.8 µM

CCOP(=O)(OCC)/C(C#N)=C\c1cccc2ccccc12
TGI (OVCAR-3 ovarian): > 100 µM
TGI (SNB-75 CNS): 88.5 µM
TGI (KM12 colon): > 100 µM
TGI (NCI-H23 lung): > 100 µM
TGI (UACC-62 melanoma): > 100 µM
TGI (IGROV1 ovarian): > 100 µM
TGI (U251 CNS): > 100 µM
TGI (ACHN renal): > 100 µM
TGI (HCT-15 colon): > 100 µM

CC1=C(C#N)C(N)=C2C(C)=C(C#N)C(N)=C12
TGI (OVCAR-3 ovarian): > 100 µM
TGI (SNB-75 CNS): > 100 µM
TGI (KM12 colon): > 100 µM
TGI (NCI-H23 lung): > 100 µM
TGI (UACC-62 melanoma): > 100 µM
TGI (IGROV1 ovarian): > 100 µM
TGI (U251 CNS): > 100 µM
TGI (HCT-15 colon): > 100 µM

CC1(CC(=O)O)OC2CCCCCC2O1 (configuration not stated) (tested in a mixture with another compound)
TGI (OVCAR-3 ovarian): > 100 µM
TGI (SNB-75 CNS): > 100 µM
TGI (KM12 colon): > 100 µM
TGI (NCI-H23 lung): > 100 µM
TGI (UACC-62 melanoma): > 100 µM
TGI (IGROV1 ovarian): > 100 µM
TGI (U251 CNS): > 100 µM
TGI (ACHN renal): > 100 µM
TGI (HCT-15 colon): > 100 µM

Cc1ccc(C2=Nc3c(N)ncnc3NC(c3cccc(Nc4ccnc5cc(C(F)(F)F)ccc45)c3)C2)cc1 (configuration not stated)
GI50 (OVCAR-3 ovarian): 3.47 µM
TGI (OVCAR-3 ovarian): 15.1 µM
GI50 (KM12 colon): 3.26 µM
TGI (KM12 colon): 13.3 µM
GI50 (NCI-H23 lung): 3.6 µM
TGI (NCI-H23 lung): 16.7 µM
GI50 (UACC-62 melanoma): 4.78 µM
TGI (UACC-62 melanoma): 26.8 µM
GI50 (IGROV1 ovarian): 4.93 µM
TGI (IGROV1 ovarian): 90.9 µM
GI50 (U251 CNS): 3.73 µM
TGI (U251 CNS): 15.1 µM
GI50 (ACHN renal): 4.69 µM
TGI (ACHN renal): > 100 µM
GI50 (HCT-15 colon): 2.82 µM
TGI (HCT-15 colon): 16.5 µM

COc1ccc(C2=CC(c3cc(OC)c(OC)c(OC)c3)n3ncnc3N2)cc1 (configuration not stated)
GI50 (OVCAR-3 ovarian): 0.0286 µM
TGI (OVCAR-3 ovarian): 0.0764 µM
GI50 (KM12 colon): 0.0402 µM
TGI (KM12 colon): 18.9 µM
GI50 (NCI-H23 lung): 0.0875 µM
TGI (NCI-H23 lung): 42 µM
GI50 (UACC-62 melanoma): 0.0689 µM
TGI (UACC-62 melanoma): > 100 µM
GI50 (IGROV1 ovarian): 0.0912 µM
TGI (IGROV1 ovarian): 31.1 µM
GI50 (U251 CNS): 0.0551 µM
TGI (U251 CNS): 29.6 µM
GI50 (ACHN renal): 0.152 µM
TGI (ACHN renal): 43.9 µM
GI50 (HCT-15 colon): 0.042 µM
TGI (HCT-15 colon): > 100 µM

CC(CS(=O)(=O)Cc1ccccc1)C(N)=O (configuration not stated)
TGI (OVCAR-3 ovarian): > 100 µM
TGI (KM12 colon): > 100 µM
TGI (NCI-H23 lung): > 100 µM
TGI (UACC-62 melanoma): > 100 µM
TGI (IGROV1 ovarian): > 100 µM
TGI (U251 CNS): > 100 µM
TGI (ACHN renal): > 100 µM
TGI (HCT-15 colon): > 100 µM

Cc1nnc2n1N=C(CC(=O)c1ccc(O)cc1O)CN2N
TGI (KM12 colon): > 100 µM
TGI (NCI-H23 lung): > 100 µM
TGI (UACC-62 melanoma): > 100 µM
TGI (IGROV1 ovarian): > 100 µM
TGI (U251 CNS): > 100 µM
TGI (ACHN renal): > 100 µM
TGI (HCT-15 colon): 29.7 µM

O=c1oc(-c2ccc(O)c(O)c2)cc2cc(O)cc(O)c12
GI50 (OVCAR-3 ovarian): 35.3 µM
TGI (OVCAR-3 ovarian): > 100 µM
GI50 (KM12 colon): 28.6 µM
TGI (KM12 colon): > 100 µM
GI50 (NCI-H23 lung): 35.2 µM
TGI (NCI-H23 lung): > 100 µM
GI50 (UACC-62 melanoma): 33.8 µM
TGI (UACC-62 melanoma): > 100 µM
GI50 (IGROV1 ovarian): 2.19 µM
TGI (IGROV1 ovarian): 43.2 µM
GI50 (U251 CNS): 48.5 µM
TGI (U251 CNS): > 100 µM
GI50 (ACHN renal): 45.3 µM
TGI (ACHN renal): > 100 µM
GI50 (HCT-15 colon): 57.1 µM
TGI (HCT-15 colon): > 100 µM

O=C1c2cccnc2C(=O)c2c1c(C(=O)OCCCN1CCOCC1)c1ccccn21
GI50 (OVCAR-3 ovarian): 0.0201 µM
TGI (OVCAR-3 ovarian): 0.528 µM
GI50 (SNB-75 CNS): < 0.01 µM
TGI (SNB-75 CNS): 0.015 µM
GI50 (KM12 colon): 0.0333 µM
TGI (KM12 colon): 15.4 µM
GI50 (NCI-H23 lung): < 0.01 µM
GI50 (UACC-62 melanoma): < 0.01 µM
TGI (UACC-62 melanoma): 0.0244 µM
GI50 (IGROV1 ovarian): 0.0163 µM
TGI (IGROV1 ovarian): 3.2 µM

O=C1C=C(Nc2cccc(Br)c2)c2ccccc2C1=O
GI50 (OVCAR-3 ovarian): 2.89 µM
TGI (OVCAR-3 ovarian): 16 µM
GI50 (SNB-75 CNS): 0.39 µM
TGI (SNB-75 CNS): 5.01 µM
GI50 (KM12 colon): 4.13 µM
TGI (KM12 colon): > 100 µM
GI50 (UACC-62 melanoma): 2.96 µM
TGI (UACC-62 melanoma): 18 µM
GI50 (IGROV1 ovarian): 10.5 µM
TGI (IGROV1 ovarian): 37.5 µM
GI50 (U251 CNS): 2.74 µM
TGI (U251 CNS): 22.1 µM
GI50 (ACHN renal): 0.957 µM
TGI (ACHN renal): > 100 µM
GI50 (HCT-15 colon): 1.33 µM
TGI (HCT-15 colon): > 100 µM

O=C(OCc1ccccc1CN1CCOCC1)c1ccc(Br)cc1
TGI (OVCAR-3 ovarian): 83.2 µM
TGI (SNB-75 CNS): > 100 µM
TGI (NCI-H23 lung): > 100 µM
TGI (UACC-62 melanoma): > 100 µM
TGI (IGROV1 ovarian): > 100 µM
TGI (U251 CNS): > 100 µM
TGI (ACHN renal): > 100 µM
TGI (HCT-15 colon): > 100 µM

CCCCCCCCCCCCCCCC[N+]1(CC)CCCC1
GI50 (OVCAR-3 ovarian): 0.478 µM
TGI (OVCAR-3 ovarian): 1.65 µM
GI50 (SNB-75 CNS): 0.247 µM
TGI (SNB-75 CNS): 1.11 µM
GI50 (KM12 colon): 0.73 µM
TGI (KM12 colon): 2.04 µM
GI50 (IGROV1 ovarian): 0.432 µM
TGI (IGROV1 ovarian): 1.87 µM
GI50 (U251 CNS): 0.363 µM
TGI (U251 CNS): 1.35 µM
GI50 (ACHN renal): 1.33 µM
TGI (ACHN renal): 4.43 µM
GI50 (HCT-15 colon): 1.35 µM
TGI (HCT-15 colon): 5.49 µM

CC1Cc2c(N(C)C)ncnc2N(C)c2ccc(Cl)cc21 (configuration not stated)
GI50 (OVCAR-3 ovarian): 2.51 µM
TGI (OVCAR-3 ovarian): 8.88 µM
GI50 (SNB-75 CNS): 2.02 µM
TGI (SNB-75 CNS): 8.52 µM
GI50 (KM12 colon): 3.15 µM
TGI (KM12 colon): > 100 µM
GI50 (NCI-H23 lung): 5.74 µM
TGI (NCI-H23 lung): > 100 µM
GI50 (IGROV1 ovarian): 8.48 µM
TGI (IGROV1 ovarian): > 100 µM
GI50 (U251 CNS): 4.99 µM
TGI (U251 CNS): 29.1 µM
GI50 (ACHN renal): 7.59 µM
TGI (ACHN renal): > 100 µM
GI50 (HCT-15 colon): 2.83 µM
TGI (HCT-15 colon): 85.9 µM
